# Assay: in vitro
# Details: human, hela cells, % viability
row,Compound,"viability at 28.5 h, 10 µM [%]"
1,O=c1c2cc(F)ccc2nc2n1CCN(Cc1cccs1)CC2 [CBK284859],110
2,O=c1c2cc(F)ccc2nc2n1CCN(Cc1ccsc1)CC2 [CBK284860],106
3,O=C(Cn1c(-c2ccc(F)cc2)cc2cccnc21)NC1CC1 [CBK284861],103
4,O=C(CCn1c(C(F)(F)F)cc2cccnc21)NCc1cccnc1 [CBK284865],106
5,Cn1cc(NC(=O)CCn2c(C(F)(F)F)cc3cccnc32)cn1 [CBK284866],92.5
6,CC(=O)N1C2CCC1CC(O)(Cn1ccc3ccnc(Cl)c31)C2 (centres unmarked) [CBK284868],106
7,O=C(CCn1c(C(F)(F)F)cc2cccnc21)N1CCOCC1 [CBK284869],96.4
8,CC1CCN(C(=O)C2C3CCC4(CC(=O)c5ccccc5O4)C32)CC1 (centres unmarked) [CBK284872],98.7
9,C=CCNC(=O)C1C2CCC3(CC(=O)c4cc(Cl)ccc4O3)C21 (centres unmarked) [CBK284873],86.3
10,CC1CCc2n[nH]c(C(=O)N3CCc4ncc(Cl)cc4C3)c2C1 (centres unmarked) [CBK284874],93.6
11,CN(C)[C@@H]1CN(Cc2cccnc2)C[C@H]1c1cn(C)c2ccccc12 [CBK284875],110
12,CN1CCCc2cc(CN3CCC4(CCCNC4=O)CC3)ccc21 [CBK284876],101
13,O=C1NCCCC12CCN(Cc1cccc(F)c1F)CC2 [CBK284877],91.8
14,O=C1NCCCC12CCN(Cc1ccccc1N1CCCCC1)CC2 [CBK284878],95.5
15,Cc1ccc2c(c1)C(NC(=O)C1CC1)CC1(CCOCC1)O2 (centres unmarked) [CBK284879],93.4
16,CCOC(=O)C1(Cc2cc(-c3cccc(F)c3)no2)CCNCC1 [CBK284881],89.4
17,Cc1cc(C[C@@H]2COC[C@H]2NCc2cccc(Cl)c2)on1 [CBK284885],89.9
18,CN1C[C@]2(CC[C@@H](C(=O)N3CCCC3)CC2)Oc2ccccc2C1=O [CBK284886],103
19,O=C1CN(C(=O)CCn2c(C(F)(F)F)cc3cccnc32)CCN1 [CBK284888],92.8
20,CCNC(=O)[C@H]1CC[C@]2(CC1)CNC(=O)c1cc(Cl)ccc1O2 [CBK284890],95.4
21,O=C(c1cccnc1)N1CCC(c2cc3ccccc3cn2)CC1 [CBK284891],101
22,O=C(c1cc[nH]n1)N1CCC(c2cc3ccccc3cn2)CC1 [CBK284892],91.7
23,CCOC(=O)[C@H]1CC[C@]2(CC1)CNC(=O)c1ccccc1O2 [CBK284893],92.5

row,Compound,"viability at 28.5 h, 10 µM [%]"
1,CN(C)C(=O)[C@H]1CC[C@]2(CC1)CNC(=O)c1ccccc1O2 [CBK284894],92.7
2,CN1CCN(C(=O)CCn2c(C(F)(F)F)cc3cccnc32)CC1 [CBK284896],93.7
3,Cn1nc(C2CCN(C(=O)c3cccc(F)c3)CC2)c2cccnc21 [CBK284898],94
4,O=C1NCC2(CCCN(C(=O)c3cccs3)C2)Oc2ccccc21 (centres unmarked) [CBK284900],102
5,O=C1NCC2(CCCN(Cc3ccccc3F)C2)Oc2ccccc21 (centres unmarked) [CBK284901],95
6,Fc1ccc(CN2CCC(c3n[nH]c4ncccc34)CC2)cc1 [CBK284902],96.2
7,O=C(c1cccc(F)c1)N1CCC(c2n[nH]c3ncccc23)CC1 [CBK284907],109
8,O=C(c1cc(F)cc(F)c1)N1CCC(c2n[nH]c3ncccc23)CC1 [CBK284909],87.9
9,Cc1ccsc1C(=O)N1CCC(c2n[nH]c3ncccc23)CC1 [CBK284910],92.2
10,Cc1ccc(C(=O)N2CCC(c3n[nH]c4ncccc34)CC2)s1 [CBK284911],90.8
11,Cn1cc(C2CCCCCN2C(=O)c2ccc(F)cc2)cn1 (centres unmarked) [CBK284913],76.8
12,Cn1ccc(C2CCCCCN2C(=O)c2c(Cl)cnn2C)n1 (centres unmarked) [CBK284914],102
13,Cn1ncc(Cl)c1C1CCCCCN1C(=O)c1ccco1 (centres unmarked) [CBK284915],104
14,Cc1noc(C)c1C(=O)N1CCCCCC1c1c(Cl)cnn1C (centres unmarked) [CBK284918],93.3
15,O=C(c1cc[nH]n1)N1CCCC(c2cc3ccccc3cn2)C1 (centres unmarked) [CBK284921],85.2
16,O=C1CC2(CCC3C(C(=O)NC4CCCC4)C32)Oc2ccccc21 (centres unmarked) [CBK284922],97.6
17,CCN(CC)C(=O)C1C2CCC3(CC(=O)c4ccccc4O3)C21 (centres unmarked) [CBK284923],105
18,Cn1nc(C2CCN(C(=O)c3cccs3)CC2)c2cccnc21 [CBK284925],82.9
19,Cc1cc(C)n(CC(=O)N2CCCC(c3cc4cccnc4[nH]3)C2)n1 (centres unmarked) [CBK284928],96.2
20,CC(C)n1nccc1C(=O)N1CCCC(c2cc3cccnc3[nH]2)C1 (centres unmarked) [CBK284930],99.3
21,CC1CCCN(C(=O)C2C3CCC4(CC(=O)c5ccccc5O4)C32)C1 (centres unmarked) [CBK284932],89.8
22,Cc1cc(C[C@@H]2CCC[C@H]2NCc2cccnc2)on1 [CBK284933],97.1
23,Cc1cc(C[C@@H]2CCC[C@H]2NCc2nc3ccccc3[nH]2)on1 [CBK284935],87.3

row,Compound,"viability at 28.5 h, 10 µM [%]"
1,O=C(C1CCCCC1)N1CCCC(c2cc3cccnc3[nH]2)C1 (centres unmarked) [CBK284938],98.4
2,O=C(c1cccc(F)c1)N1CCCC(c2cc3cccnc3[nH]2)C1 (centres unmarked) [CBK284939],122
3,O=C(c1cccs1)N1Cc2ccccc2OC2(CCOCC2)C1 [CBK284942],103
4,C=Cn1cc(CN2CCCC(c3cc4cccnc4[nH]3)C2)c(C)n1 (centres unmarked) [CBK284944],115
5,CC(C)(C)C(=O)N1CCCC(c2cc3cccnc3[nH]2)C1 (centres unmarked) [CBK284945],102
6,Cc1ccc(-c2cc(CC3(C(=O)NC4CC4)CCOCC3)on2)cc1 [CBK284946],99.7
7,O=C1CC2(CCC3C(C(=O)N4CCCCC4)C32)Oc2ccccc21 (centres unmarked) [CBK284947],105
8,Cn1cncc1CN1CCCC(c2cc3cccnc3[nH]2)C1 (centres unmarked) [CBK284948],98.4
9,CCCn1ncc(CN2CCC(c3cc4cccnc4[nH]3)CC2)c1C [CBK284949],97.2
10,Cc1ccc2c(c1)C(=O)CC1(CCC3C(C(=O)N4CCCC4)C31)O2 (centres unmarked) [CBK284951],98.3
11,Cc1nccn1CC1(O)CCN(Cc2ccc(F)c(F)c2)CC1 [CBK284955],117
12,O=C(CCn1c(C(F)F)cc2cccnc21)N1CCOCC1 [CBK284956],101
13,CC1CCCCN1C(=O)C1C2CCC3(CC(=O)c4ccccc4O3)C21 (centres unmarked) [CBK284960],101
14,Cc1nccn1CC1(O)CCN(Cc2ccccc2F)CC1 [CBK284961],105
15,CC(C)(C)NC(=O)C1C2CCC3(CC(=O)c4cc(Cl)ccc4O3)C21 (centres unmarked) [CBK284963],109
16,Cc1ccc(-c2cc3cccnc3n2CCC(=O)NC2CC2)cn1 [CBK284964],97.4
17,CN1CCC2(CC1)CN(C(=O)C1CC1)Cc1ccccc1O2 [CBK284967],102
18,Cc1ccc(S(=O)(=O)N2CC[C@@H]3C[C@H](NC(=O)C4CC4C)[C@@H]32)cc1 (some centres unmarked) [CBK284968],90
19,O=C1CC2(CCC3C(C(=O)N4CCCC4)C32)Oc2ccccc21 (centres unmarked) [CBK284969],104
20,Cn1cc(C2CCCCCN2C(=O)c2cccc(F)c2)cn1 (centres unmarked) [CBK284970],102
21,Cn1cc(C2CCCCCN2C(=O)c2nn(C)cc2Cl)cn1 (centres unmarked) [CBK284972],93.2
22,Cc1noc(C)c1C(=O)N1CCCCCC1c1cnn(C)c1 (centres unmarked) [CBK284974],98.8
23,O=C(c1n[nH]c2c1CCCC2)N1CCc2ncc(Cl)cc2C1 [CBK284975],93.4

row,Compound,"viability at 28.5 h, 10 µM [%]"
1,O=C1CC(C(=O)N2CCc3ncc(Cl)cc3C2)c2ccccc2N1 (centres unmarked) [CBK284976],94.4
2,CCn1nc(C)c(CN2CCCC(c3cc4cccnc4[nH]3)C2)c1C (centres unmarked) [CBK284977],107
3,Cc1cc2ccnc(Cl)c2n1CC1(O)CC2CCC(C1)N2 (centres unmarked) [CBK284980],95
4,Cc1nccn1CC1(O)CCN(CC2=CCC3CC2C3(C)C)CC1 (centres unmarked) [CBK284981],94.6
5,CC1CCN(C(=O)CCn2c(C(F)F)cc3cccnc32)CC1 [CBK284982],85.6
6,O=C(CCn1c(C(F)F)cc2cccnc21)N1CCCCCC1 [CBK284983],96.9
7,O=C(CCn1c(C(F)F)cc2cccnc21)N1CCCC(CO)C1 (centres unmarked) [CBK284985],99.5
8,Cn1nc(C2CCN(C(=O)Cc3ccsc3)CC2)c2cccnc21 [CBK284986],101
9,Cc1ccc(C(=O)N2CCC(c3nn(C)c4ncccc34)CC2)s1 [CBK284988],86.1
10,O=C(c1c(F)cccc1F)N1CCC(c2cc3cccnc3[nH]2)CC1 [CBK284997],91.5
11,Cc1cc(C)n(CC(=O)N2CCC(c3cc4cccnc4[nH]3)CC2)n1 [CBK284999],91.3
12,O=C(c1ccc(F)cc1)N1CCC(c2cc3cccnc3[nH]2)CC1 [CBK285001],96.8
13,O=C(Cn1c(C2CCNCC2)cc2cccnc21)NC1CCCC1 [CBK285002],104
14,COCC(=O)NC(Cc1cccs1)c1nc(C)cs1 (centres unmarked) [CBK285004],87.3
15,Cc1csc(C(Cc2cccs2)NC(=O)C2CCOCC2)n1 (centres unmarked) [CBK285006],89.2
16,CC(=O)N1C[C@@H](N(C)C)[C@H](c2cn(C)c3ccccc23)C1 [CBK285007],99.5
17,CC(C)N(C(=O)Cn1c(C(F)F)cc2cccnc21)C(C)C [CBK285009],100
18,COCC(C)NC(=O)Cn1c(C(F)F)cc2cccnc21 (centres unmarked) [CBK285010],105
19,O=C(Cn1cccc2cc(C3CCCNC3)nc1-2)NC1CCCC1 (centres unmarked) [CBK285015],95.5
20,Cc1n[nH]c(C)c1CC(=O)N1CCCC(c2cc3ccccc3cn2)C1 (centres unmarked) [CBK285018],103
21,Cc1csc(C(Cc2ccsc2)NCc2cccnc2)n1 (centres unmarked) [CBK285020],96.6
22,CC(=O)N1Cc2cc(C)ccc2OC2(CCN(CC3CC3)CC2)C1 [CBK285021],95
23,CC1CCCN(C(=O)CCn2c(C(F)F)cc3cccnc32)C1 (centres unmarked) [CBK285025],97.9

# From PMC12040169 (PLOS Biology, 2025)
